Reference: ChEMBL document CHEMBL3132829, “Optimization of triazole-based TGR5 agonists towards orally available agents” (Medchemcomm, 2013)

Legend:
Format in all cases: ADME, organism-based, Canis lupus familiaris
[1] = Cmax in beagle dog at 1 mg/kg, iv and 3 mg/kg, po by LC-MS/MS analysis; conditions: in vivo
[2] = Volume of distribution at steady state in beagle dog at 1 mg/kg, iv and 3 mg/kg, po by LC-MS/MS analysis; conditions: in vivo, read-out: Vdss
[3] = Tmax in beagle dog at 1 mg/kg, iv and 3 mg/kg, po by LC-MS/MS analysis; conditions: in vivo
[4] = Half life in beagle dog at 1 mg/kg, iv and 3 mg/kg, po by LC-MS/MS analysis; conditions: in vivo
[5] = Oral bioavailability in beagle dog at 3 mg/kg by LC-MS/MS analysis; conditions: in vivo

Cmax [1]: 510 nM | Vd [2]: 4.6 L/kg | Tmax [3]: 0.25 h | half-life [4]: 4.7 h | bioavailability [5]: 17%
SMILES: COc1cccc(-n2nnc(C3CC3)c2C(=O)N(C)c2ccc(C#N)cc2)c1
